In PubChem BioAssay AID2060497 (Molecular Pharmacology Branch, DTP, NCI, 2025):

Tested on: 317291-083-R-J1-PDC complex spheroids, viability
Experiment: Anticancer human tumor 317291-083-R-J1-PDC patient-derived soft tissue sarcoma cell line growth inhibition [GQUAD]
Details: for IC50: curve of first compound; for viability, T/C: stronger effect = lower value
How it was run: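 Viability of tumor cells grown as complex spheroids with endothelial and stromal cells, exposed to drug combinations. Top concentration at or near clinical Cmax (else 10 microM), diluted in half-log increments.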

[1] = second compound 0.0316 µM, first compound 0.0316 µM
[2] = second compound 0.0316 µM, first compound 0.316 µM
[3] = second compound 0.1 µM, first compound 0.0316 µM
[4] = second compound 0.1 µM, first compound 0.316 µM
[5] = second compound 0.316 µM, first compound 0.0316 µM
[6] = second compound 0.316 µM, first compound 0.316 µM
[7] = second compound 1 µM, first compound 0.0316 µM
[8] = second compound 1 µM, first compound 0.316 µM
[9] = second compound 3.16 µM, first compound 0.0316 µM
[10] = second compound 3.16 µM, first compound 0.316 µM
[11] = second compound 10 µM, first compound 0.0316 µM
[12] = second compound 10 µM, first compound 0.316 µM
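Note: spheroids exposed to compounds for one week before readout.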
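Throughout, for viability, T/C: percent viability relative to DMSO vehicle wells taken as 100%.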

CC1COCCN1c1cc(C2(O)CC3CCC(C2)O3)c2cnn(-c3ccn[nH]3)c2n1 (centres undefined) + CN(C)c1ccc(Nc2c3ccc(NC(=O)CCN4CCCC4)cc3nc3cc(NC(=O)CCN4CCCC4)ccc23)cc1
IC50 (second compound 0.0316 µM): 37.1 nM | IC50 (second compound 0.1 µM): < 31.6 nM | IC50 (second compound 0.316 µM): < 31.6 nM | IC50 (second compound 1 µM): < 31.6 nM | IC50 (second compound 3.16 µM): < 31.6 nM | IC50 (second compound 10 µM): < 31.6 nM | viability, T/C [1]: 54.7% | viability, T/C (second compound 0.0316 µM, first compound 0.1 µM): 21.6% | viability, T/C [2]: 16.4% | viability, T/C (second compound 0.0316 µM, first compound 1 µM): 16.2% | viability, T/C (second compound 0.0316 µM, first compound 3.16 µM): 12.9% | viability, T/C (second compound 0.0316 µM, first compound 10 µM): 2.01% | viability, T/C [3]: 50.5% | viability, T/C (second compound 0.1 µM, first compound 0.1 µM): 25.5% | viability, T/C [4]: 18.2% | viability, T/C (second compound 0.1 µM, first compound 1 µM): 15.3% | viability, T/C (second compound 0.1 µM, first compound 3.16 µM): 11.1% | viability, T/C (second compound 0.1 µM, first compound 10 µM): 3.17% | viability, T/C [5]: 44.2% | viability, T/C (second compound 0.316 µM, first compound 0.1 µM): 17.4% | viability, T/C [6]: 12.6% | viability, T/C (second compound 0.316 µM, first compound 1 µM): 12.1% | viability, T/C (second compound 0.316 µM, first compound 3.16 µM): 12.8% | viability, T/C (second compound 0.316 µM, first compound 10 µM): 2.37% | viability, T/C [7]: 23.5% | viability, T/C (second compound 1 µM, first compound 0.1 µM): 10.9% | viability, T/C [8]: 8.42% | viability, T/C (second compound 1 µM, first compound 1 µM): 5.55% | viability, T/C (second compound 1 µM, first compound 3.16 µM): 7.51% | viability, T/C (second compound 1 µM, first compound 10 µM): 1.2% | viability, T/C [9]: 15.1% | viability, T/C (second compound 3.16 µM, first compound 0.1 µM): 9.28% | viability, T/C [10]: 6% | viability, T/C (second compound 3.16 µM, first compound 1 µM): 3.23% | viability, T/C (second compound 3.16 µM, first compound 3.16 µM): 4.27% | viability, T/C (second compound 3.16 µM, first compound 10 µM): 0.57% | viability, T/C [11]: 4.09% | viability, T/C (second compound 10 µM, first compound 0.1 µM): 3.93% | viability, T/C [12]: 2.46% | viability, T/C (second compound 10 µM, first compound 1 µM): 2.16% | viability, T/C (second compound 10 µM, first compound 3.16 µM): 2.2% | viability, T/C (second compound 10 µM, first compound 10 µM): 0.34%

CCc1c2c(nc3ccc(O)cc13)-c1cc3c(c(=O)n1C2)COC(=O)[C@]3(O)CC + CN(C)c1ccc(Nc2c3ccc(NC(=O)CCN4CCCC4)cc3nc3cc(NC(=O)CCN4CCCC4)ccc23)cc1
IC50 (second compound 0.0316 µM): 1.31 nM | IC50 (second compound 0.1 µM): 1.65 nM | IC50 (second compound 0.316 µM): < 0.999 nM | IC50 (second compound 1 µM): < 0.999 nM | IC50 (second compound 3.16 µM): < 0.999 nM | IC50 (second compound 10 µM): < 0.999 nM | viability, T/C (second compound 0.0316 µM, first compound 0.000999 µM): 58% | viability, T/C (second compound 0.0316 µM, first compound 0.00316 µM): 24.2% | viability, T/C (second compound 0.0316 µM, first compound 0.00999 µM): 15.7% | viability, T/C [1]: 10.1% | viability, T/C (second compound 0.0316 µM, first compound 0.0999 µM): 7.96% | viability, T/C [2]: 5.2% | viability, T/C (second compound 0.1 µM, first compound 0.000999 µM): 65.8% | viability, T/C (second compound 0.1 µM, first compound 0.00316 µM): 28.6% | viability, T/C (second compound 0.1 µM, first compound 0.00999 µM): 17.5% | viability, T/C [3]: 10.9% | viability, T/C (second compound 0.1 µM, first compound 0.0999 µM): 9.19% | viability, T/C [4]: 5.38% | viability, T/C (second compound 0.316 µM, first compound 0.000999 µM): 48.7% | viability, T/C (second compound 0.316 µM, first compound 0.00316 µM): 24.2% | viability, T/C (second compound 0.316 µM, first compound 0.00999 µM): 15.5% | viability, T/C [5]: 13.7% | viability, T/C (second compound 0.316 µM, first compound 0.0999 µM): 8.7% | viability, T/C [6]: 5.23% | viability, T/C (second compound 1 µM, first compound 0.000999 µM): 28.4% | viability, T/C (second compound 1 µM, first compound 0.00316 µM): 15.4% | viability, T/C (second compound 1 µM, first compound 0.00999 µM): 10.4% | viability, T/C [7]: 5.97% | viability, T/C (second compound 1 µM, first compound 0.0999 µM): 7.46% | viability, T/C [8]: 3.88% | viability, T/C (second compound 3.16 µM, first compound 0.000999 µM): 20.7% | viability, T/C (second compound 3.16 µM, first compound 0.00316 µM): 9.56% | viability, T/C (second compound 3.16 µM, first compound 0.00999 µM): 7.45% | viability, T/C [9]: 4.96% | viability, T/C (second compound 3.16 µM, first compound 0.0999 µM): 4.76% | viability, T/C [10]: 2.38% | viability, T/C (second compound 10 µM, first compound 0.000999 µM): 8.21% | viability, T/C (second compound 10 µM, first compound 0.00316 µM): 7.57% | viability, T/C (second compound 10 µM, first compound 0.00999 µM): 4.2% | viability, T/C [11]: 2.29% | viability, T/C (second compound 10 µM, first compound 0.0999 µM): 2.45% | viability, T/C [12]: 2.41%
